# Laboratory results published in ChEMBL document CHEMBL1212733, “Chemical genomics in Escherichia coli identifies an inhibitor of bacterial lipoprotein targeting” (Nat Chem Biol, 2009).
# Activity calls are given as the source filed them. The rule behind the calls is not given here.
# Legend:
# [1] = system: Escherichia coli; test: Antibacterial activity against Escherichia coli K-12 MG1655 after 16 hrs by microbroth dilution method; assay type: functional; details: K-12 MG1655, 16 h
# [2] = system: Pseudomonas aeruginosa; test: Antibacterial activity against Pseudomonas aeruginosa PAO1 after 16 hrs by microbroth dilution method; assay type: functional; details: PAO1, 16 h
# [3] = system: Bacillus subtilis; test: Antibacterial activity against Bacillus subtilis 168 after 16 hrs by microbroth dilution method; assay type: functional; details: subsp. subtilis str. 168, 16 h
# [4] = system: Candida albicans; test: Antifungal activity against Candida albicans after 16 hrs by microbroth dilution method; assay type: functional
# [5] = system: Burkholderia cepacia; test: Antibacterial activity against Burkholderia cepacia B154408 after 16 hrs by microbroth dilution method; assay type: functional; details: B154408, 16 h
# [6] = system: Escherichia coli; test: Antibacterial activity against Escherichia coli ATCC 25922 after 16 hrs by microbroth dilution method; assay type: functional; details: ATCC 25922, 16 h
# [7] = system: Stenotrophomonas maltophilia; test: Antibacterial activity against Stenotrophomonas maltophilia B22020 after 16 hrs by microbroth dilution method; assay type: functional; details: B22020, 16 h
# [8] = system: HeLa; test: Cytotoxicity against human HeLa cells after 24 hrs by Cell Titre-Glo luminescent assay; assay type: cell-based
# [9] = system: Micrococcus luteus; test: Antibacterial activity against Micrococcus luteus after 16 hrs by microbroth dilution method; assay type: functional
# [10] = system: Staphylococcus aureus; test: Antibacterial activity against Staphylococcus aureus after 16 hrs by microbroth dilution method; assay type: functional
# [11] = target: Small ribosomal subunit protein bS18 (Escherichia coli (strain K12)) (UniProt P0A7T7); test: Inhibition of IPTG-stimulated Escherichia coli K-12 rpSR at 4 fold MIC by microarray analysis
# [12] = target: tRNA threonylcarbamoyladenosine biosynthesis protein TsaE (Escherichia coli (strain K12)) (UniProt P0AF67); test: Inhibition of IPTG-stimulated Escherichia coli K-12 yjeE at 4 fold MIC by microarray analysis
# [13] = target: tRNA threonylcarbamoyladenosine biosynthesis protein TsaE (Escherichia coli (strain K12)) (UniProt P0AF67); test: Inhibition of IPTG-stimulated Escherichia coli K-12 yjeE at 8 fold MIC by microarray analysis
# [14] = target: T1, Dihydrofolate synthase/folylpolyglutamate synthase (Escherichia coli (strain K12)) (UniProt P08192); test: Inhibition of IPTG-stimulated Escherichia coli K-12 folC at 4 fold MIC by microarray analysis
# T1 sequence (whole entry): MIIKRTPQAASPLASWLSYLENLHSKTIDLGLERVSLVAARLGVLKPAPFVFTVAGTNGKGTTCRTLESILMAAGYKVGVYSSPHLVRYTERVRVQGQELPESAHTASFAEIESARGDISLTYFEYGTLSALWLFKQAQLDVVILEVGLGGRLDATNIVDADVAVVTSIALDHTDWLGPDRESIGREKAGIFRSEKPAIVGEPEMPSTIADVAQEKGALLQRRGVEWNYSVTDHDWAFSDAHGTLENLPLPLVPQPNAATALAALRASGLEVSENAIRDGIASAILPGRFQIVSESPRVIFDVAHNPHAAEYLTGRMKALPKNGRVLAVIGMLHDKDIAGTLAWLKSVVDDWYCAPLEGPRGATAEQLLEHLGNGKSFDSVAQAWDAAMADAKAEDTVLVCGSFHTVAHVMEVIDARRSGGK
# [15] = target: T2, Outer membrane protein TolC (Escherichia coli (strain K12)) (UniProt P02930); test: Inhibition of IPTG-stimulated Escherichia coli K-12 tolC at 8 fold MIC by microarray analysis
# T2 sequence (whole entry): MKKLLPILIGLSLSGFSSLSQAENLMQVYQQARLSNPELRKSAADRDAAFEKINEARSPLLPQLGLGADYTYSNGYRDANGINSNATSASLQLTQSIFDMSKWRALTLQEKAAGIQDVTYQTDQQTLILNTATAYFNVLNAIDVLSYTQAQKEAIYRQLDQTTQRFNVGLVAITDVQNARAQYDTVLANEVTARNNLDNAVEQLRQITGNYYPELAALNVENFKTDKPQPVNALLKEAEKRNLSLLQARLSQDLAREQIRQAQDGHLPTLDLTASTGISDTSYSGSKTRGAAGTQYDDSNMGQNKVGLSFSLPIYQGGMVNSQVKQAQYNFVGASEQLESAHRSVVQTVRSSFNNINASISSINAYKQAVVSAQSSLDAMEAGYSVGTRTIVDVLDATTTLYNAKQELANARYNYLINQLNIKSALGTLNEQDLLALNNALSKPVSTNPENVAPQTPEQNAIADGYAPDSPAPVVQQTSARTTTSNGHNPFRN
# [16] = target: T2, Outer membrane protein TolC (Escherichia coli (strain K12)); test: Inhibition of IPTG-stimulated Escherichia coli K-12 tolC at 4 fold MIC by microarray analysis
# [17] = target: Small ribosomal subunit protein bS18 (Escherichia coli (strain K12)) (UniProt P0A7T7); test: Inhibition of IPTG-stimulated Escherichia coli K-12 rpSR at 8 fold MIC by microarray analysis
# [18] = target: Intermembrane phospholipid transport system binding protein MlaB (Escherichia coli (strain K12)) (UniProt P64602); test: Inhibition of IPTG-stimulated Escherichia coli K-12 yrbB at 4 fold MIC by microarray analysis
# Sequence of Intermembrane phospholipid transport system binding protein MlaB (Escherichia coli (strain K12)) (P64602 whole entry): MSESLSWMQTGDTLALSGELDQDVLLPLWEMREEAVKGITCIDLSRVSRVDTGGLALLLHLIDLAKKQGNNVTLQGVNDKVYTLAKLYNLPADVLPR
# [19] = target: Large ribosomal subunit protein bL28 (Escherichia coli (strain K12)) (UniProt P0A7M2); test: Inhibition of IPTG-stimulated Escherichia coli K-12 rpmB at 4 fold MIC by microarray analysis
# [20] = target: Glutamyl-tRNA reductase (Escherichia coli (strain K12)) (UniProt P0A6X1); test: Inhibition of IPTG-stimulated Escherichia coli K-12 hemA at 4 fold MIC by microarray analysis
# Sequence of Glutamyl-tRNA reductase (Escherichia coli (strain K12)) (P0A6X1 whole entry): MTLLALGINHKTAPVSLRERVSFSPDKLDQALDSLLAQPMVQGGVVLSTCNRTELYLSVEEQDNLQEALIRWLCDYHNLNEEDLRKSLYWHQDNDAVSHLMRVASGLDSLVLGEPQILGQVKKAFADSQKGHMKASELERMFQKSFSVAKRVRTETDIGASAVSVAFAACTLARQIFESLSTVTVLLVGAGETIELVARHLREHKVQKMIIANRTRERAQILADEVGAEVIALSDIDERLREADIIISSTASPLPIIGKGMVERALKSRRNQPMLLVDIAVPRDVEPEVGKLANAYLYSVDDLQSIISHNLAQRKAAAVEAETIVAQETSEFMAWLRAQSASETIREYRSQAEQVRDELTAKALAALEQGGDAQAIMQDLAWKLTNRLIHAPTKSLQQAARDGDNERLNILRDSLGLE
# [21] = target: Cell shape-determining protein MreC (Escherichia coli (strain K12)) (UniProt P16926); test: Inhibition of IPTG-stimulated Escherichia coli K-12 mreC at 4 fold MIC by microarray analysis
# Sequence of Cell shape-determining protein MreC (Escherichia coli (strain K12)) (P16926 whole entry): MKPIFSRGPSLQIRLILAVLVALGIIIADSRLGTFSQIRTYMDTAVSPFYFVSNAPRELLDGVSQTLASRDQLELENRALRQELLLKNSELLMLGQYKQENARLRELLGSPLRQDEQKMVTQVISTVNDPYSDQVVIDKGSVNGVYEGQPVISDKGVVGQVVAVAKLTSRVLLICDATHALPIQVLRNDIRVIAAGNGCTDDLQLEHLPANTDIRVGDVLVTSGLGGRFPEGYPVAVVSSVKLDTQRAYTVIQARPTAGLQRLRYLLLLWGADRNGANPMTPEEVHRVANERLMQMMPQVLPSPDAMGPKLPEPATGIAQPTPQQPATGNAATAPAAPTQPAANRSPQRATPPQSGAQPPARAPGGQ
# [22] = target: Thymidylate kinase (Escherichia coli (strain K12)) (UniProt P0A720); test: Inhibition of IPTG-stimulated Escherichia coli K-12 tmk at 4 fold MIC by microarray analysis
# Sequence of Thymidylate kinase (Escherichia coli (strain K12)) (P0A720 whole entry): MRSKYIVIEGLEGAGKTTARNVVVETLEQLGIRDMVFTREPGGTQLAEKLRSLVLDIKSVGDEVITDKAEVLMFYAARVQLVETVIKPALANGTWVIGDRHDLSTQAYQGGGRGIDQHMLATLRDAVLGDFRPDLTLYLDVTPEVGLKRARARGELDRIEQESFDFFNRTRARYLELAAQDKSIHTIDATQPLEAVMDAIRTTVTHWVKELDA
# [23] = target: 4-hydroxy-tetrahydrodipicolinate reductase (Escherichia coli (strain K12)) (UniProt P04036); test: Inhibition of IPTG-stimulated Escherichia coli K-12 dapB at 4 fold MIC by microarray analysis
# Sequence of 4-hydroxy-tetrahydrodipicolinate reductase (Escherichia coli (strain K12)) (P04036 whole entry): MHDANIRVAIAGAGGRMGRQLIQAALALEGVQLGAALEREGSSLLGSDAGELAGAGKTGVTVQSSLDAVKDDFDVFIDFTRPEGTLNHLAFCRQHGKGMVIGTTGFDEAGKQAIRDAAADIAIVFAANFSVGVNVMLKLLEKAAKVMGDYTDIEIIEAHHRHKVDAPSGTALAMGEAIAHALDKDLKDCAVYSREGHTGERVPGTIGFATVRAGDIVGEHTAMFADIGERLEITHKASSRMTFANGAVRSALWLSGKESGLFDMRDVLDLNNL
# [24] = target: T3, Uncharacterized protein YdiL (Escherichia coli (strain K12)) (UniProt P76196); test: Inhibition of IPTG-stimulated Escherichia coli K-12 ydiL at 8 fold MIC by microarray analysis
# T3 sequence (whole entry): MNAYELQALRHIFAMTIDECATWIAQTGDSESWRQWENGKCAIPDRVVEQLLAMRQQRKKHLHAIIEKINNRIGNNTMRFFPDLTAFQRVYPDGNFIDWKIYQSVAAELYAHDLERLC
# [25] = target: D-alanine--D-alanine ligase B (Escherichia coli K-12) (UniProt P07862); test: Inhibition of IPTG-stimulated Escherichia coli K-12 ddlB at 4 fold MIC by microarray analysis
# [26] = target: Phosphatidylglycerol--prolipoprotein diacylglyceryl transferase (Escherichia coli (strain K12)) (UniProt P60955); test: Inhibition of IPTG-stimulated Escherichia coli K-12 umpA at 4 fold MIC by microarray analysis
# Sequence of Phosphatidylglycerol--prolipoprotein diacylglyceryl transferase (Escherichia coli (strain K12)) (P60955 whole entry): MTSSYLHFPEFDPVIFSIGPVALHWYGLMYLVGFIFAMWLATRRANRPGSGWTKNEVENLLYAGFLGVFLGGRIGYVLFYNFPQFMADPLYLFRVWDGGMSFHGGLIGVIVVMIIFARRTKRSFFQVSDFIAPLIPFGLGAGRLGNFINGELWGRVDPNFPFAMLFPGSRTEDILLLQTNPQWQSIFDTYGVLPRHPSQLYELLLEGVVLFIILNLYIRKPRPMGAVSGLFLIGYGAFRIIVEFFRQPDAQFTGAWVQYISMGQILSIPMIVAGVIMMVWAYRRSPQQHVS
# [27] = target: Protein YdfW (Escherichia coli (strain K12)) (UniProt P76164); test: Inhibition of IPTG-stimulated Escherichia coli K-12 ydfW at 4 fold MIC by microarray analysis
# Sequence of Protein YdfW (Escherichia coli (strain K12)) (P76164 whole entry): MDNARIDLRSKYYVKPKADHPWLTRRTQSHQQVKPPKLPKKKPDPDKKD
# [28] = target: Long-chain fatty acid transport protein (Escherichia coli (strain K12)) (UniProt P10384); test: Inhibition of IPTG-stimulated Escherichia coli K-12 fadl at 4 fold MIC by microarray analysis
# Sequence of Long-chain fatty acid transport protein (Escherichia coli (strain K12)) (P10384 whole entry): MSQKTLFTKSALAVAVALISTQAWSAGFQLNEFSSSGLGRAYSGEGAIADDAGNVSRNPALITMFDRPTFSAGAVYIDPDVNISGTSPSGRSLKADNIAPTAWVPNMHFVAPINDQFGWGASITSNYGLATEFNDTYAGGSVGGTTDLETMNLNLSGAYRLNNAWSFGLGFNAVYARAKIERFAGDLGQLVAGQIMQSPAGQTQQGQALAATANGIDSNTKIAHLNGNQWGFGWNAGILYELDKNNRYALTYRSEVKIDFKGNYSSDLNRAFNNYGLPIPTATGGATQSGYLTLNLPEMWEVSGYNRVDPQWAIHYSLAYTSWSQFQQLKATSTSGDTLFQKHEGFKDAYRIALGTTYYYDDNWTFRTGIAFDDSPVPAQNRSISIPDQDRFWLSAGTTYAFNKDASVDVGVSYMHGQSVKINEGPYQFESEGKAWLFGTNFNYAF
# [29] = target: Large ribosomal subunit protein uL2 (Escherichia coli (strain K12)) (UniProt P60422); test: Inhibition of IPTG-stimulated Escherichia coli K-12 rplB at 4 fold MIC by microarray analysis
# [30] = target: Transcriptional regulatory protein BaeR (Escherichia coli (strain K12)) (UniProt P69228); test: Inhibition of IPTG-stimulated Escherichia coli K-12 baeR at 4 fold MIC by microarray analysis
# [31] = target: Antitoxin YefM (Escherichia coli (strain K12)) (UniProt P69346); test: Inhibition of IPTG-stimulated Escherichia coli K-12 yefM at 4 fold MIC by microarray analysis
# Sequence of Antitoxin YefM (Escherichia coli (strain K12)) (P69346 whole entry): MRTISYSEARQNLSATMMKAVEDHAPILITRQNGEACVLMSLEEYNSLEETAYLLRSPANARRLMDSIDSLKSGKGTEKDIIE
# [32] = target: Multifunctional CCA protein (Escherichia coli (strain K12)) (UniProt P06961); test: Inhibition of IPTG-stimulated Escherichia coli K-12 cca at 4 fold MIC by microarray analysis
# Sequence of Multifunctional CCA protein (Escherichia coli (strain K12)) (P06961 whole entry): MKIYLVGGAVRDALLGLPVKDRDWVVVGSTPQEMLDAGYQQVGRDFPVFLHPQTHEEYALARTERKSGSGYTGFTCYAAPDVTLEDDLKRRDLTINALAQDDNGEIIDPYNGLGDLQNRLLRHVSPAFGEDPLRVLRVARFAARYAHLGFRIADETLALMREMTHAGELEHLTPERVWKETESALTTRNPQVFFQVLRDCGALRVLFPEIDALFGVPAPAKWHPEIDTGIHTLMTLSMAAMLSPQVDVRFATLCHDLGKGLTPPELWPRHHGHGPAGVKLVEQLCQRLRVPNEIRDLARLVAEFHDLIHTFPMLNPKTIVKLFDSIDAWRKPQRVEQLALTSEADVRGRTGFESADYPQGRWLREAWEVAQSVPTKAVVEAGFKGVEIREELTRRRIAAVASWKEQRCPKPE
# [33] = target: T2, Outer membrane protein TolC (Escherichia coli (strain K12)); test: Inhibition of IPTG-stimulated Escherichia coli K-12 tolC at 16 fold MIC by microarray analysis
# [34] = target: UDP-N-acetylglucosamine 1-carboxyvinyltransferase (Escherichia coli K-12) (UniProt P0A749); test: Inhibition of IPTG-stimulated Escherichia coli K-12 murA at 4 fold MIC by microarray analysis
# Sequence of UDP-N-acetylglucosamine 1-carboxyvinyltransferase (Escherichia coli K-12) (P0A749 whole entry): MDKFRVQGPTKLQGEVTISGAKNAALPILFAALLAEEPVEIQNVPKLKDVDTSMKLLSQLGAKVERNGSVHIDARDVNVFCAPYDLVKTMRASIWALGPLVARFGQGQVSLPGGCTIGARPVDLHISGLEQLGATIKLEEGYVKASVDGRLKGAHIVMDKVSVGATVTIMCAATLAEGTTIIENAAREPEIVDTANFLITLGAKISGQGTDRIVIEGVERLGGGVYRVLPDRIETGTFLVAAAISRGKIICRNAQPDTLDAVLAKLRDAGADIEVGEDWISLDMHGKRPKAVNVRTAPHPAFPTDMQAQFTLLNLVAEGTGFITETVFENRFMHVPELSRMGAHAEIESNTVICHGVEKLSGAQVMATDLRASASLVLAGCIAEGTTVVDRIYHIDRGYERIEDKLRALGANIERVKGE
# [35] = target: T3, Uncharacterized protein YdiL (Escherichia coli (strain K12)); test: Inhibition of IPTG-stimulated Escherichia coli K-12 ydiL at 16 fold MIC by microarray analysis
# [36] = target: Cell division protein FtsX (Escherichia coli (strain K12)) (UniProt P0AC30); test: Inhibition of IPTG-stimulated Escherichia coli K-12 ftsX at 4 fold MIC by microarray analysis
# Sequence of Cell division protein FtsX (Escherichia coli (strain K12)) (P0AC30 whole entry): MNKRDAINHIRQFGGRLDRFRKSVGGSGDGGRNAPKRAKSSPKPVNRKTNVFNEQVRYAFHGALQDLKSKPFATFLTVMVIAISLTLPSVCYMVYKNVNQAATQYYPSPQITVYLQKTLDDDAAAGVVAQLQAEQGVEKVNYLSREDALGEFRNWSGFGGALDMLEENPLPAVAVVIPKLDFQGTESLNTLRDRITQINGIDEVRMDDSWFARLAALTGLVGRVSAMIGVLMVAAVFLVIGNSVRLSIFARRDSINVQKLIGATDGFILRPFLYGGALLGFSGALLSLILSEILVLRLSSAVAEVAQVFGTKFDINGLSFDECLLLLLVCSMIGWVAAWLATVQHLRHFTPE
# [37] = target: UDP-N-acetylmuramoylalanine--D-glutamate ligase (Escherichia coli K-12) (UniProt P14900); test: Inhibition of IPTG-stimulated Escherichia coli K-12 murD at 4 fold MIC by microarray analysis
# Sequence of UDP-N-acetylmuramoylalanine--D-glutamate ligase (Escherichia coli K-12) (P14900 whole entry): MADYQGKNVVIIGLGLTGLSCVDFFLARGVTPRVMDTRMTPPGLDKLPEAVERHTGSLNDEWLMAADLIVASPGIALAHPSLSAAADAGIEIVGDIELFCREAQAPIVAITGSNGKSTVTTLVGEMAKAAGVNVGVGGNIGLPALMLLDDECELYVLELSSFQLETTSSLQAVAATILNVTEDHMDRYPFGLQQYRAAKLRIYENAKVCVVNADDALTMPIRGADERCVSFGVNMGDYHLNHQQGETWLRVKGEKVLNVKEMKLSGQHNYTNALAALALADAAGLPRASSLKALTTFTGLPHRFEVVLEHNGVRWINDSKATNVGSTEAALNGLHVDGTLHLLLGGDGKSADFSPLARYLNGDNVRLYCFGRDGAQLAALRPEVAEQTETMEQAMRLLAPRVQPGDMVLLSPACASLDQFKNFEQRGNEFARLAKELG
# [38] = target: tRNA(Ile)-lysidine synthase (Escherichia coli (strain K12)) (UniProt P52097); test: Inhibition of IPTG-stimulated Escherichia coli K-12 mesJ at 4 fold MIC by microarray analysis
# Sequence of tRNA(Ile)-lysidine synthase (Escherichia coli (strain K12)) (P52097 whole entry): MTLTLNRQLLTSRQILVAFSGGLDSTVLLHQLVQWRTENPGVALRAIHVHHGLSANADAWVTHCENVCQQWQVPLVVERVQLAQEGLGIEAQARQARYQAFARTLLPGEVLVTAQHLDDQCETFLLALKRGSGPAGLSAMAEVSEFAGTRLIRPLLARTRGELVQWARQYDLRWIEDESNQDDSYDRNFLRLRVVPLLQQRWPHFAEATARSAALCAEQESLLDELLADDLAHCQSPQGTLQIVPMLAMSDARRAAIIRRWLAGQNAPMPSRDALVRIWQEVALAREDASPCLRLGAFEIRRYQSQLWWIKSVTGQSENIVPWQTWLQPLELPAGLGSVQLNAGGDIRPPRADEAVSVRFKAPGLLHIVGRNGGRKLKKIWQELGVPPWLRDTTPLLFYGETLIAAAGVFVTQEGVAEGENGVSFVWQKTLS
# [39] = target: Glycerate 3-kinase (Escherichia coli (strain K12)) (UniProt P77364); test: Inhibition of IPTG-stimulated Escherichia coli K-12 glxK at 4 fold MIC by microarray analysis
# Sequence of Glycerate 3-kinase (Escherichia coli (strain K12)) (P77364 whole entry): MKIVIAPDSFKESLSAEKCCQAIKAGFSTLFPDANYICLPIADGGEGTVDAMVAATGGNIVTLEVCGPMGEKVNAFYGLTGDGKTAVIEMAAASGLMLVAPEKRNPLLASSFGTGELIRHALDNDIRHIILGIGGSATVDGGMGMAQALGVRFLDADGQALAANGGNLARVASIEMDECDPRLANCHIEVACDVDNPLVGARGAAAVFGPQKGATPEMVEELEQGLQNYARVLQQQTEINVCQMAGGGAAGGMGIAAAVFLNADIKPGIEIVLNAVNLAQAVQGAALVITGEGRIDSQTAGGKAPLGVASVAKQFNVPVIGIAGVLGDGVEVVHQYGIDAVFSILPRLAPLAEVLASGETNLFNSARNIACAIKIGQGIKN
structure (smiles),measurement,setting,value
CN1CN=C(SCc2ccc(Cl)cc2)NC1,MIC,[1],8 µg/mL
same,MIC,[2],> 256 µg/mL
same,MIC,[3],> 256 µg/mL
same,MIC,[4],> 256 µg/mL
same,MIC,[5],> 256 µg/mL
same,MIC,[6],256 µg/mL
same,MIC,[7],> 256 µg/mL
same,Activity,[8],> 256 µg/mL
same,MIC,[9],> 256 µg/mL
same,MIC,[10],> 256 µg/mL
COc1ccc(CCN2CN=C(SCc3ccc(Cl)c(Cl)c3)NC2)cc1OC,MIC,[1],8 µg/mL
COc1ccc(CSC2=NCN(CCc3ccc(OC)c(OC)c3)CN2)cc1,MIC,[1],512 µg/mL
COc1ccc(CCN2CN=C(SCc3cc(Cl)cc(Cl)c3)NC2)cc1OC,MIC,[1],16 µg/mL
COc1cccc(CCN2CN=C(SCc3ccc(Cl)cc3)NC2)c1,MIC,[1],16 µg/mL
COc1ccc(CCN2CN=C(SCc3ccccc3Cl)NC2)cc1OC,MIC,[1],> 256 µg/mL
CCN1CN=C(SCc2ccc(Cl)cc2)NC1,MIC,[1],8 µg/mL
Clc1ccc(CCN2CN=C(SCc3ccc(Cl)cc3)NC2)cc1,MIC,[1],32 µg/mL
COc1ccc(CCN2CN=C(SCc3ccc(Br)cc3)NC2)cc1OC,MIC,[1],8 µg/mL
COc1ccc(CCN2CN=C(SCc3ccc(I)cc3)NC2)cc1OC,MIC,[1],256 µg/mL
COc1ccc(CCN2CN=C(SCc3ccccc3)NC2)cc1OC,MIC,[1],256 µg/mL
same,MIC,[2],32 µg/mL
same,MIC,[3],> 256 µg/mL
same,MIC,[4],> 256 µg/mL
same,MIC,[5],128 µg/mL
same,MIC,[6],8 µg/mL
same,MIC,[7],16 µg/mL
same,Activity,[8],> 256 µg/mL
same,MIC,[9],> 256 µg/mL
same,MIC,[10],> 256 µg/mL
Clc1ccc(CSC2=NCN(CCc3ccccc3)CN2)cc1,MIC,[1],8 µg/mL
COc1ccc(CCN2CN=C(SCc3ccc(C)cc3)NC2)cc1OC,MIC,[1],64 µg/mL
COc1cc(Cc2cnc(N)nc2N)cc(OC)c1OC,inhibition,[11],Active
COc1ccc(CCN2CN=C(SCc3cccc(Cl)c3)NC2)cc1OC,MIC,[1],> 256 µg/mL
COc1ccc(CCN2CN=C(SCc3ccc(Cl)cc3)NC2)cc1,MIC,[1],64 µg/mL
Cc1cc(NS(=O)(=O)c2ccc(N)cc2)no1,inhibition,[12],Active
same,inhibition,[13],Active
same,inhibition,[11],Active
same,inhibition,[14],Active
same,inhibition,[15],Active
same,inhibition,[16],Active
same,inhibition,[17],Active
COc1ccc(CCN2CN=C(SCc3ccc([N+](=O)[O-])cc3)NC2)cc1OC,MIC,[1],> 256 µg/mL
CN[C@@H]1[C@H](O)[C@H](NC)[C@H]2O[C@@]3(O)C(=O)C[C@@H](C)O[C@H]3O[C@@H]2[C@H]1O,inhibition,[12],Active
same,inhibition,[13],Active
same,inhibition,[11],Active
same,inhibition,[17],Active
COc1ccc(CN2CN=C(SCc3ccc(Cl)cc3)NC2)cc1OC,MIC,[1],32 µg/mL
O=CN(O)CCCP(=O)(O)O,inhibition,[18],Active
same,inhibition,[19],Active
same,inhibition,[20],Active
same,inhibition,[21],Active
same,inhibition,[22],Active
same,inhibition,[23],Active
same,inhibition,[12],Active
same,inhibition,[24],Active
same,inhibition,[25],Active
same,inhibition,[26],Active
same,inhibition,[27],Active
same,inhibition,[28],Active
same,inhibition,[29],Active
same,inhibition,[30],Active
same,inhibition,[31],Active
same,inhibition,[32],Active
same,inhibition,[33],Active
same,inhibition,[34],Active
same,inhibition,[35],Active
same,inhibition,[15],Active
same,inhibition,[36],Active
same,inhibition,[16],Active
same,inhibition,[37],Active
same,inhibition,[38],Active
same,inhibition,[39],Active
